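Test compounds were applied to cells in 96-well plates for 48 hours at 5 doses. Here, GI50 denotes the concentration required for 50% inhibition of growth.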 Activity calls are given as the source filed them. No stated cut-off is given here; in the data, active = GI50 up to about 1.1 µM and inactive = higher.
How the values were obtained:
Experiment in all cases: inhibition of tumour cell growth, NCI panel, 48 h
SF-295 = test system: SF-295
HT-29 = test system: HT-29
HCT-116 = test system: HCT-116
T47D = test system: T47D
HOP-18 = test system: HOP-18
A549 = test system: A549
MCF7 = test system: MCF7
OVCAR-8 = test system: OVCAR-8
TK-10 = test system: TK-10
KM-20L2 = test system: KM-20L2
786-0 = test system: 786-0
SK-OV-3 = test system: SK-OV-3
RXF 393 = test system: RXF 393
HCT-15 = test system: HCT-15
DLD-1 = test system: DLD-1
SK-MEL-2 = test system: SK-MEL-2
SK-MEL-28 = test system: SK-MEL-28
SN12C = test system: SN12C
U-251 = test system: U-251
SNB-19 = test system: SNB-19

Compound: CCc1nc2ccc(NCCN(C)C)c3c(=O)c4ccccc4n1c23
- GI50 (SF-295): 741 nM (active)
- GI50 (HT-29): 489 nM (active)
- GI50 (HCT-116): 337 nM (active)
- GI50 (T47D): 2590 nM (inactive)
- GI50 (HOP-18): 891 nM (active)
- GI50 (A549): 380 nM (active)
- GI50 (MCF7): 2110 nM (inactive)
- GI50 (OVCAR-8): 515 nM (active)
- GI50 (TK-10): 2310 nM (inactive)
- GI50 (KM-20L2): 741 nM (active)
- GI50 (786-0): 479 nM (active)
- GI50 (SK-OV-3): 1690 nM (inactive)
- GI50 (RXF 393): 1670 nM (inactive)
- GI50 (HCT-15): 456 nM
- GI50 (DLD-1): 533 nM (active)
- GI50 (SK-MEL-2): 3070 nM (inactive)
- GI50 (SK-MEL-28): 2440 nM (inactive)
- GI50 (SN12C): 404 nM (active)
- GI50 (U-251): 796 nM (active)
- GI50 (SNB-19): 2570 nM (inactive)

From ChEMBL document CHEMBL1201862, “PubChem BioAssay data set” (2004)
